Patent publication US20140005181A1, “SMALL MOLECULE ANTAGONISTS OF THE APELIN RECEPTOR FOR THE TREATMENT OF DISEASE” (Sanford-Burnham Medical Research Institute, priority 2012, published 2014)
“And” between values parts separate entries of the source, which are not always exact repeats. Equal entries are not always repeated. Where two headings read alike, the source gives them in different places.

Tests used:
APJ = target: T1, APJ (Homo sapiens, UniProt P35414); test: APJ receptor internalization assay; assay type: cell-based; conditions: fixed apelin-13 6.23 nM
T1 sequence (P35414 1-380): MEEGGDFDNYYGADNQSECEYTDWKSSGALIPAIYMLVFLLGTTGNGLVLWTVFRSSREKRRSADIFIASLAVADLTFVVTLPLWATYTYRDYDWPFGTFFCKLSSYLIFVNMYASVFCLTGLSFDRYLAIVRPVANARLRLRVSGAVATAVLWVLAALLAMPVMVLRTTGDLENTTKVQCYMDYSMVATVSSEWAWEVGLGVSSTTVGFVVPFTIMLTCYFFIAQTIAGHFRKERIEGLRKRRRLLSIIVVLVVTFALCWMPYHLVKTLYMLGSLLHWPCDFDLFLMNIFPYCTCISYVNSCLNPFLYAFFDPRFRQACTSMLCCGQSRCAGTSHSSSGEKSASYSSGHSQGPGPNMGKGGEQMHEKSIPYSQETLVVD
Protocol: This graph depicts the mean percent inhibition (±SEM) of apelin-13 mediated receptor internalization. Representative of an experiment that was repeated three times with each data point performed in triplicate. Curve fit analysis was performed using nonlinear regression with a 4-point logistic fit (GraphPad Prism5).

PAMPA permeability = assay type: in vitro ADME; conditions: for Papp: PAMPA, read-out: PAMPA Pe
Protocol: The PAMPA (Parallel Artificial Membrane Permeability Assay) assay is used as an in vitro model of passive, transcellular permeability. An artificial membrane immobilized on a filter is placed between a donor and acceptor compartment. At the start of the test, drug is introduced in the donor compartment. Following the permeation period, the concentration of drug in the donor and acceptor compartments is measured using UV spectroscopy.

Plasma stability, human = assay type: in vitro ADME; conditions: Plasma:1x PBS pH 7.4 1:1, 3 hrs
[1] = Stability in 1x PBS pH 7.4 (plasma stability assay); assay type: physicochemical; conditions: 1x PBS pH 7.4, 3 hrs
kappa opioid receptor = target: T2, kappa opioid receptor (Homo sapiens, UniProt P41145); test: PDSP GPCR binding assay panel
T2 construct: Psychoactive Drug Screening Program (PDSP), University of North Carolina

[2] = system: benzodiazepinone receptors; test: PDSP GPCR binding assay panel
[3] = Hepatic toxicity / cytotoxicity; conditions: human, hepatocytes
human hepatocytes = test: Hepatic toxicity / cytotoxicity; conditions: Table 1
[4] = Hepatic microsome stability, human
[5] = Hepatic microsome stability, mouse

T2 sequence (P41145 whole entry): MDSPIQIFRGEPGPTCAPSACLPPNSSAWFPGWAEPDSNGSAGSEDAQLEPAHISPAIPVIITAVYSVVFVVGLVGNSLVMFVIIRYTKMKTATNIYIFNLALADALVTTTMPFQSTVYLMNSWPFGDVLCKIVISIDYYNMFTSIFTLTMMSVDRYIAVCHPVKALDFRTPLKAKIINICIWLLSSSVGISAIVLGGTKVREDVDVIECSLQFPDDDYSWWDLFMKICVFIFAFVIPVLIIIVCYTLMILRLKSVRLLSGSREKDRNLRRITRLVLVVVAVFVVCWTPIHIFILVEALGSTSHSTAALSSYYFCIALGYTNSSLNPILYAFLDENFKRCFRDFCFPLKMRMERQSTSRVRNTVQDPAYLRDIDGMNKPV

O=C(Oc1coc(CSc2ncccn2)cc1=O)c1ccc([N+](=O)[O-])cc1 [Compound 6, 4-OXO-6-((PYRIMIDIN-2-YLTHIO)METHYL)-4H-PYRAN-3-YL-4-NITROBENZOATE]
antagonism of apelin-13 induced APJ receptor internalization (APJ): antagonized the ability of apelin-13 to induce APJ receptor internalization | PAMPA Pe (×10^−6 cm/s) (PAMPA permeability; Donor pH 7.4, Acceptor pH 7.4): 271 ×10^−6 cm/s | Papp (PAMPA permeability; Donor pH 5.0, Acceptor pH 7.4): 195 ×10⁻⁶ cm/s | Papp (PAMPA permeability; Donor pH 6.2, Acceptor pH 7.4): 240 ×10⁻⁶ cm/s | Permeability (PAMPA) pH 7.4 (PAMPA permeability; Table 1, pH 7.4): 271.0 × 10^−6 cm/s | Plasma Stability (% Remaining @3 hrs) (Plasma stability, human): 0.26% | Plasma Stability (% Remaining @3 hrs), 1x PBS pH 7.4 ([1]; first value (Human position)): 46.97% | Plasma Stability (% Remaining @3 hrs), 1x PBS pH 7.4 ([1]; second value (Mouse position)): 42.18% | binding activity at kappa opioid receptor (kappa opioid receptor): significant activity | binding activity at benzodiazepinone receptors [2]: significant activity | solubility (Aqueous solubility; 1x PBS, pH 7.4, aqueous buffer): 3.6 µg/mL and 9.3 µM | Aqueous Solubility pH 7.4 (Aqueous solubility; Table 1, pH 7.4): 25.5 μg/mL | solubility (Aqueous solubility; aqueous media, pH 5, aqueous buffer): 3 µg/mL and 7.8 µM | solubility (Aqueous solubility; aqueous media, pH 6.2, aqueous buffer): 3.6 µg/mL and 9.3 µM | solubility (Aqueous solubility; aqueous media, pH 7.4, aqueous buffer): 9.8 µg/mL and 25 µM | Plasma Protein Binding (mouse) (Plasma protein binding; mouse): 99.1% | detection in the plasma protein binding assay (Plasma protein binding; species not given, 18 h incubation): undetectable | Plasma Stability (% Remaining @3 hrs) (Plasma stability, mouse; Mouse, Plasma:1x PBS pH 7.4 1:1, 3 hrs): 0.88% | Plasma Stability (Plasma stability, mouse; Table 1, species and matrix not given): 42.2% | CC50 [3]: > 50 µM | Cytotoxicity (human hepatocytes): >50 µM | Hepatic Microsome Stability Human ([4]; Human): 4.19 | % remaining at 60 min in human liver homogenates ([4]; human, 60 min): 4.2% | Hepatic Microsome Stability ([5]; Table 1, species not given, equals the mouse value): 4.9% | Hepatic Microsome Stability Mouse ([5]; mouse): 4.89 | % remaining at 60 min in mouse liver homogenates ([5]; mouse, 60 min): 4.9%
